Literature values, collected in patent US20260217749A1, “METAL COMPLEX COMPOUNDS AS PHOTOSENSITIZERS FOR PHOTODYNAMIC THERAPY” (UNIVERSITAT DE BARCELONA, priority 2023, published 2026).

Test system: SK-MEL-28 melanoma cells
Settings: red light irradiation (625 nm)

## Cc1ccnc(-c2cc(C)ccn2)c1.Cc1ccnc(-c2cc(C)ccn2)c1.[Cl-].[Cl-].[Ru+2].c1csc(-c2ccc(-c3ccc(-c4nc5c6cccnc6c6ncccc6c5[nH]4)s3)s2)c1 [TLD-1433]
  IC50: 2.3 µM
  PI value: moderate
